US20190160037A1, “METHOD OF TREATING, REDUCING, PREVENTING DETERIORATION OR IMPROVING VISUAL FUNCTION AFTER OPTIC NEUROPATHY” (TZU CHI UNIVERSITY, priority 2017, published 2019)

How the values were obtained:
iNOS = iNOS immunoblot in the retina after ON crush; assay type: in vivo, Wistar rats; conditions: two weeks after ON crush, ratio to GAPDH, vs PBS-treated
Source text: (§1) An ON crush injury was induced as described in the previous report. (Chien J Y, Sheu J H, Wen Z H, Tsai R K, Huang S P. Neuroprotective effect of 4-(Phenylsulfanyl)butan-2-one on optic nerve crush model in rats. Experimental eye research. 2016; 143:148-57. Epub 2015/10/17). Briefly, rats were general anesthetized and eye were further anesthetized with topical 0.5% Alcaine eye drops. The conjunctiva was cut with Vannas scissors to expose the optic nerve. Care was taken to avoid damaging the small vessels around the ON. Injury was introduced by crushing the ON 2 mm posterior to the globe with a vascular clip (60 g micro-vascular clip, World Precision Instruments, FL, USA) for 30 seconds. After the surgery, Tobradex eye ointment (Alcon, Puurs, Belgium) was administered. The rats were kept under supervision and on electric heating pads at 37° C. for recovery. A sham operation was performed by exposing the ON in the same way but not crushed. […]
(§2) Total retinal protein extracts from rat retina were prepared using modified radioimmunoprecipitation (RIPA) buffer. The protein concentrations were determined using the BCA (bicinchoninic acid) protein assay kit (Pierce). […] The proteins on the membranes were detected using an enhanced chemiluminescence (ECL) system (Amersham Biosciences). […]

RAW264.7 macrophages = conditions: through inhibiting the activation of NFκB-p65; cited from earlier work
[1] = system: apoptotic cells in the RGC layer; assay: TUNEL assay in the RGC layer of the retina after ON crush; assay type: in vivo, Wistar rats; conditions: 15 mg/Kg once by subcutaneous injection, n=6
Source text: as §1
To ensure the use of equivalent fields for comparison, all retinal frozen sections were prepared with retinas at 1-2 mm distance from the ONH. […] The TUNEL positive cells in the RGC layer of each sample were counted in ten high powered fields (HPF, ×400 magnification), and three sections per eye were averaged. […]

GFAP = GFAP IHC and immunoblot in the retina after ON crush; assay type: in vivo, Wistar rats; conditions: 2 weeks after ON crush, vs ON-crushed, PBS-treated group, p<0.05
Source text: as §1, with “seconds.” for “seconds. After the surgery, Tobradex eye ointment (Alcon, Puurs, Belgium) was administered. The rats were kept under supervision and on electric heating pads at 37° C. for recovery. A sham operation was performed by exposing the ON in the same way but not crushed.”
(§3) IHC of ED1 (CD68, a marker of macrophage/microglia) in the ONs and IHC of GFAP in the retina using monoclonal antibody (ED1, 1:50; AbD Serotec, Oxford, UK) or polyclonal antibody (GFAP, 1:200; Cambridge, Mass., USA) was performed. […] For comparison, ED1 positive cells were counted in six HPF at the lesion site of ON (n=6 in each group).
as §2

[2] = system: hippocampal dentate gyrus region; conditions: in vivo studies; cited from earlier work
microglia = conditions: cited from earlier work
RGCs = assay: Retrograde Fluorogold labeling of RGCs, RGC density after ON crush; assay type: in vivo, Wistar rats
Source text: (§4) An ON crush injury was induced as described in the previous report. (Chien J Y, Sheu J H, Wen Z H, Tsai R K, Huang S P. Neuroprotective effect of 4-(Phenylsulfanyl)butan-2-one on optic nerve crush model in rats. Experimental eye research. 2016; 143:148-57. Epub 2015/10/17). Briefly, rats were general anesthetized and eye were further anesthetized with topical 0.5% Alcaine eye drops. The conjunctiva was cut with Vannas scissors to expose the optic nerve. Care was taken to avoid damaging the small vessels around the ON. Injury was introduced by crushing the ON 2 mm posterior to the globe with a vascular clip (60 g micro-vascular clip, World Precision Instruments, FL, USA) for 30 seconds. After the surgery, Tobradex eye ointment (Alcon, Puurs, Belgium) was administered. The rats were kept under supervision and on electric heating pads at 37° C. for recovery. A sham operation was performed by exposing the ON in the same way but not crushed. Oroxyiln A (15 mg/Kg in 0.2 ml phosphate-buffered saline) or phosphate-buffered saline (PBS control) was immediately administered after ON crush once by subcutaneous injection.
Retrograde labeling of RGCs with Fluorogold (FG) and densities of RGCs. The detailed procedures have been described in the previous reports. (Chien J Y, Sheu J H, Wen Z H, Tsai R K, Huang S P. Neuroprotective effect of 4-(Phenylsulfanyl)butan-2-one on optic nerve crush model in rats. Experimental eye research. 2016; 143:148-57. Epub 2015/10/17; Tsai R K, Chang C H, Wang H Z. Neuroprotective effects of recombinant human granulocyte colony-stimulating factor (G-CSF) in neurodegeneration after optic nerve crush in rats. Experimental eye research. 2008; 87(3):242-50. Epub 2008/07/08). Briefly, retrograde labeling of RGCs with FG was performed one week before sacrificing to avoid overcounting RGCs by mixing labeled RGCs with dye-engulfed macrophages and microglia. (Huang T L, Huang S P, Chang C H, Lin K H, Sheu M M, Tsai R K. Factors influencing the retrograde labeling of retinal ganglion cells with fluorogold in an animal optic nerve crush model. Ophthalmic research. 2014; 51(4):173-8. Epub 2014/03/26). The rats were anesthetized using a ketamine (100 mg/kg) and xylazine (10 mg/kg) mixture, and then placed in a stereotactic apparatus (Stoelting, Wood Dale, Ill., USA). […] One week after labeling, the eyeballs were harvested after euthanasia of the animals. The eyeballs were placed in 10% formalin and the whole retina was then carefully dissected, flattened. The retina was examined with a 400 epi-fluorescence microscope (Axioskop; Carl Zeiss Meditec. Inc., Jena, Germany) equipped with a filter set (excitation filter: 350-400 nm; barrier filter: 515 nm), as well as a digital camera (Axiocam MRm) and software (Axiovision 4.0). The retinas were examined for RGCs at a distance of 1 or 3 mm ([…] from the center to provide the central and mid-peripheral RGC densities respectively. Eight randomly chosen areas (38250 μm2; […]) in the central (about 40% of the central area) and mid-peripheral (about 30% of the mid-periphery) regions of each retina (n=6 per group) were counted. The averages of these areas were taken as the mean density of RGCs per retina. RGC survival percentage was defined as the number of RGCs in each treatment group divided by the number of RGCs in the sham-operated retina, multiplied by 100.

[3] = system: ED1 (CD68, a marker of macrophage/microglia); assay: IHC of ED1 in the ONs after ON crush; assay type: in vivo, Wistar rats; conditions: 2 weeks after ON crush; 15 mg/Kg once by subcutaneous injection; n=6
Source text: as §1, §3

Brn-3a+ cells (RGCs) = assay: Brn3a-labeled flat-mounted retinas after ON crush; assay type: in vivo, Wistar rats; conditions: for densities of Brn-3a+ cells in mid-peripheral retina / densities of Brn-3a+ cells in the central retina: after ON crush, 15 mg/Kg once by subcutaneous injection, 15 mg/kg
Source text: as §4
Animals were euthanized and eyes were enucleated and fixed in 10% formalin for 1 hour. Retina flat mounts were subjected to immunofluorescent staining for Brn-3a as previously described. (Tual-Chalot S, Allinson K R, Fruttiger M, Arthur H M. Whole Mount Immunofluorescent Staining of the Neonatal Mouse Retina to Investigate Angiogenesis In vivo. 2013; (77):e50546). In brief, flat mounts were washed with PBS and blocked with blocking buffer (PBS with 0.3% Triton-X and 5% Fetal Bovine Serum) for 1 hour. Flat mounts were then incubated with primary monoclonal antibody Brn-3a (1:200; Santa Cruz, Calif., USA) for 24 hours, washed with PBS and treated with secondary antibody Alexa flour 488 (1:400; Life Technologies, OR, USA) and incubated overnight. 8 to 10 microphotographs were captured for every retina flat mount covering central and mid peripheral region.

[4] = system: rat model subject to ON crush; assay: Flash visual-evoked potentials (FVEPs) after ON crush; assay type: in vivo, Wistar rats; conditions: 2 weeks after ON crush; 15 mg/Kg once by subcutaneous injection; n=6
Source text: as §4
For the functional evaluation of the ON, FVEPs were recorded 2 weeks after ON crush in 18 experimental rats. The groups in assessing FVEP were masked. […]

COX-2 = COX-2 immunoblot in the retina after ON crush; assay type: in vivo, Wistar rats; conditions: two weeks after ON crush, ratio to GAPDH, vs PBS-treated
Source text: as §1, §2

[5] = compared to the PBS-treated group
[6] = relative to sham-operated retina, two weeks after ON crush
[7] = two weeks after ON crush, 15 mg/Kg once by subcutaneous injection, n=6

Question: Which “expression level of iNOS in the retina” value (iNOS) does the source give for COc1c(O)cc2oc(-c3ccccc3)cc(=O)c2c1O [oroxylin A, 5,7-dihydroxy-6-methoxyflavone] here?
Answer: reducing the expression level

Question: And the “expression level of iNOS in the retina” value (iNOS; listed as Oroxylin A)?
Answer: suppressed the increase

Question: What about the “LPS-induced iNOS and cyclooxygenase-2 expression” value (RAW264.7 macrophages) of the same compound?
Answer: suppresses

Question: And the “TUNEL positive cells in the RGC layer” value [1]?
Answer: 4.0±2.4 positive cells/HPG

Question: And the “GFAP level in the retina (retinal gliosis)” value (GFAP)?
Answer: significantly reduced

Question: And the “GFAP level in the retina (retinal gliosis)” value (GFAP; listed as Oroxylin A)?
Answer: attenuated retinal gliosis

Question: And the “adult neurogenesis in the hippocampal dentate gyrus region” value [2]?
Answer: stimulated

Question: What about the “amyloid (Aβ)-induced memory impairment” value [2] of the same compound?
Answer: ameliorated

Question: What about the “cerebral hypoperfusion-induced neuronal damage” value [2] of the same compound?
Answer: prevented

Question: And the “LPS-induced NO production” value (microglia)?
Answer: strong inhibitory activities

Question: And the “RGC survival rate increase vs PBS-treated group, central retina (FG labeling)” value (RGCs; [5])?
Answer: approximately 32.7%

Question: And the “RGC survival rate increase vs PBS-treated group, mid-peripheral retina (FG labeling)” value (RGCs; [5])?
Answer: ~33.6%

Question: What about the “RGC survival, central retina (FG labeling)” value (RGCs; [6]) of the same compound?
Answer: 52.5 % survival

Question: And the “RGC survival, mid-peripheral retina (FG labeling)” value (RGCs; [6])?
Answer: 61.9 % survival

Question: What about the “densities of RGCs in mid-peripheral retina (FG labeling)” value (RGCs; [7]) of the same compound?
Answer: 960±465 /mm^2

Question: What about the “densities of RGCs in the central retina (FG labeling)” value (RGCs; [7]) of the same compound?
Answer: 1352±476 /mm^2

Question: And the “ED1 positive cells at the ON lesion site” value [3]?
Answer: 33.5±16.3 cells/HPF

Question: What about the “densities of Brn-3a+ cells in mid-peripheral retina” value (Brn-3a+ cells (RGCs)) of the same compound?
Answer: 801±199 /mm^2

Question: What about the “densities of Brn-3a+ cells in the central retina” value (Brn-3a+ cells (RGCs)) of the same compound?
Answer: 847±367 /mm^2

Question: And the “densities of Brn-3a+ cells in mid-peripheral retina” value (Brn-3a+ cells (RGCs); listed as oroxylin-A)?
Answer: 800±199 /mm^2

Question: What about the “densities of Brn-3a+ cells in the central retina” value (Brn-3a+ cells (RGCs); listed as oroxylin-A) of the same compound?
Answer: 894±367 /mm^2

Question: What about the “RGC survival rate increase vs PBS-treated group, central retina (Brn-3a)” value (Brn-3a+ cells (RGCs); [5]) of the same compound?
Answer: approximately 30.4%

Question: And the “RGC survival rate increase vs PBS-treated group, mid-peripheral retina (Brn-3a)” value (Brn-3a+ cells (RGCs); [5])?
Answer: ~29.7%

Question: And the “RGC survival, central retina (Brn-3a)” value (Brn-3a+ cells (RGCs); relative to sham-operated eyes)?
Answer: 64.9 % survival

Question: What about the “RGC survival, mid-peripheral retina (Brn-3a)” value (Brn-3a+ cells (RGCs); relative to sham-operated eyes) of the same compound?
Answer: 73 % survival

Question: What about the “latency of the P1 wave in FVEP” value [4] of the same compound?
Answer: 100 ± 12 ms

Question: And the “expression level of COX-2 in the retina” value (COX-2)?
Answer: reducing the expression level

Question: And the “expression level of COX-2 in the retina” value (COX-2; listed as Oroxylin A)?
Answer: suppressed the increase
